According to paper PMC7541396 (Nature biotechnology, 2020):

B1: PPE26: Mtb PPE protein, cell-free expressed (protein, UniProt Q79FK6 1-393, looked up)
PPE family protein PPE26: MDFGALPPEVNSVRMYAGPGSAPMVAAASAWNGLAAELSSAATGYETVITQLSSEGWLGPASAAMAEAVAPYVAWMSAAAAQAEQAATQARAAAAAFEAAFAATVPPPLIAANRASLMQLISTNVFGQNTSAIAAAEAQYGEMWAQDSAAMYAYAGSSASASAVTPFSTPPQIANPTAQGTQAAAVATAAGTAQSTLTEMITGLPNALQSLTSPLLQSSNGPLSWLWQILFGTPNFPTSISALLTDLQPYASFFYNTEGLPYFSIGMGNNFIQSAKTLGLIGSAAPAAVAAAGDAAKGLPGLGGMLGGGPVAAGLGNAASVGKLSVPPVWSGPLPGSVTPGAAPLPVSTVSAAPEAAPGSLLGGLPLAGAGGAGAGPRYGFRPTVMARPPFAG

Experiments:
TCR004 = format: cell-based, human; conditions: Supplementary Fig. 4b, n=3
TCR121 = experiment: Mtb proteome screen and PPE protein stimulation with aAPC, TCR121; format: cell-based, human

Molecule	response of TCR004 to cell-free expressed protein (TCR004)	stimulation of TCR121 by whole PPE protein (TCR121)
CFP10: Mtb protein, cell-free expressed; TCR004 target	only responded to its target antigen CFP10	
B1		strong to modest stimulation
